Laboratory results as given in PMC8234192 (2021).

System: dsDNA (69 bp) (DNA, duplex) GATACGAGCATCGTGTAGGCATCGTAGGTAATACGGATGTGCTAGCTTATTGAATTCAGAGATCTATGC/GCATAGATCTCTGAATTCAATAAGCTAGCACATCCGTATTACCTACGATGCCTACACGATGCTCGTATC
Test: fluorescence molecular brightness titration (FCS set-up)
Conditions: 137 mM Na+, 2.7 mM K+, PBS pH 7.4, 0.002% Tween20, 25 °C, 20 nM YOYO-1, mono-intercalation step, 3.5 bp per site

K1: 3.36 ± 0.43 × 10^7 M^-1
SMILES: CN1C(=Cc2cc[n+](CCC[N+](C)(C)CCC[N+](C)(C)CCC[n+]3ccc(C=C4Oc5ccccc5N4C)c4ccccc43)c3ccccc23)Oc2ccccc21
